Results as given in patent US10131652B2, “Pyrimidinyloxy benzene derivatives as herbicides” (E. I. DU PONT DE NEMOURS AND COMPANY, priority 2014, dated 2018).

Columns and labels:
Assay type in all cases: in vivo
[1] = tested on: galium (catchweed bedstraw, Galium aparine); test: Test B postemergence plant response
How it was run: (§1)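 Weeds grown in loam soil/sand pots were sprayed postemergence at 2 to 10 cm height, one- to two-leaf stage. After approximately 10 days in greenhouse, injury was rated visually against untreated controls on a 0 (no effect) to 100 (complete control) scale; dash means no test result.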

[2] = tested on: blackgrass (Alopecurus myosuroides); test: Test B postemergence plant response
How it was run: as §1

[3] = tested on: waterhemp (common waterhemp, Amaranthus rudis); test: Test D pre-/postemergence plant response; details: Postemergence
How it was run: (§2)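 Pre-/post-emergence greenhouse test. Pre: seeded loam+sand, sprayed same day. Post: 1–4 leaf plants (2–18 cm), peat/vermiculite mix. Formulation: non-phytotoxic solvent + surfactant. Scored visually d13–15, 0–100 vs control.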

[4] = tested on: ragweed (common ragweed, Ambrosia elatior); test: Test D pre-/postemergence plant response; details: Postemergence
How it was run: as §2

[5] = tested on: soybean (Glycine max); test: Test D pre-/postemergence plant response; details: Postemergence
How it was run: as §2

[6] = tested on: Italian ryegrass (Lolium multiflorum); test: Test D pre-/postemergence plant response; details: Postemergence
How it was run: as §2

[7] = tested on: giant foxtail (Setaria faberii); test: Test D pre-/postemergence plant response; details: Postemergence
How it was run: as §2

[8] = tested on: oilseed rape (Brassica napus); test: Test D pre-/postemergence plant response; details: Postemergence
How it was run: as §2

[9] = tested on: morningglory (Ipomoea coccinea); test: Test D pre-/postemergence plant response; details: Postemergence
How it was run: as §2

[10] = tested on: corn (Zea mays); test: Test D pre-/postemergence plant response; details: Postemergence
How it was run: as §2

[11] = tested on: pigweed (Amaranthus retroflexus); test: Test D pre-/postemergence plant response; details: Postemergence
How it was run: as §2

[12] = tested on: barnyardgrass (Echinochloa crus-galli); test: Test D pre-/postemergence plant response; details: Postemergence
How it was run: as §2

[13] = tested on: yellow nutsedge (Cyperus esculentus); test: Test D pre-/postemergence plant response; details: Postemergence
How it was run: as §2

[14] = tested on: chickweed (common chickweed, Stellaria media); test: Test D postemergence plant response
How it was run: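 Plants grown in pots of peat moss–vermiculite medium with wetting agent and starter nutrients received postemergence applications of the formulated test chemicals at 2 to 18 cm height (1- to 4-leaf stage). After 13 to 15 days in a greenhouse, injury was scored visually against untreated controls, 0 (no effect) to 100 (complete control).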

[15] = 125 g ai/ha, postemergence, 0 to 100 scale, 0 no effect, 100 complete control
[16] = Postemergence, 31 g ai/ha, 0 to 100 scale (0 no effect, 100 complete control)
[17] = 31 g ai/ha, scale 0 to 100 (0 no effect, 100 complete control)
[18] = 62 g ai/ha, scale 0 to 100, 0 no effect, 100 complete control
[19] = 125 g ai/ha, scale 0 to 100, 0 no effect, 100 complete control

With `Cc1cc(-c2c(F)cccc2Oc2ncc(Br)cn2)on1` [Compound 230] the “Plant response rating, Galium” value [1, 15] was 100, the “Plant response rating, Galium” value [1, 16] was 80 and the “Plant response rating, Blackgrass” value [2, 15] was 70. The “Plant response rating, Blackgrass” value [2, 16] was 20, the “Plant response rating (scale 0 to 100), Waterhemp” value ([3]; 16 g ai/ha) was 65 and the “Waterhemp plant response rating” value [3, 17] was 70. For the same compound, the “Waterhemp plant response rating” value [3, 18] was 75, the “Plant response rating, Waterhemp” value [3, 19] was 80 and the “Plant response rating (scale 0 to 100), Ragweed” value ([4]; 16 g ai/ha) was 30. The “Ragweed plant response rating” value [4, 17] was 40, the “Ragweed plant response rating” value [4, 18] was 55 and the “Plant response rating, Ragweed” value [4, 19] was 55. The “Plant response rating (scale 0 to 100), Soybean” value ([5]; 16 g ai/ha) was 50, the “Soybean plant response rating” value [5, 17] was 55 and the “Soybean plant response rating” value [5, 18] was 65. The “Plant response rating, Soybean” value [5, 19] was 85, the “Plant response rating (scale 0 to 100), Ryegrass, Italian” value ([6]; 16 g ai/ha) was 0 and the “Ryegrass, Italian plant response rating” value [6, 17] was 0. For the same compound, the “Ryegrass, Italian plant response rating” value [6, 18] was 5, the “Plant response rating, Ryegrass, Italian” value [6, 19] was 5 and the “Plant response rating (scale 0 to 100), Foxtail, Giant” value ([7]; 16 g ai/ha) was 5. The “Foxtail, Giant plant response rating” value [7, 17] was 5, the “Foxtail, Giant plant response rating” value [7, 18] was 10 and the “Plant response rating, Foxtail, Giant” value [7, 19] was 10. For the same compound, the “Plant response rating (scale 0 to 100), Oilseed Rape” value ([8]; 16 g ai/ha) was 50, the “Oilseed Rape plant response rating” value [8, 17] was 60 and the “Oilseed Rape plant response rating” value [8, 18] was 75. The “Plant response rating, Oilseed Rape” value [8, 19] was 75, the “Plant response rating (scale 0 to 100), Morningglory” value ([9]; 16 g ai/ha) was 5 and the “Morningglory plant response rating” value [9, 17] was 5. The “Morningglory plant response rating” value [9, 18] was 5, the “Plant response rating, Morningglory” value [9, 19] was 70 and the “Plant response rating (scale 0 to 100), Corn” value ([10]; 16 g ai/ha) was 0. The “Corn plant response rating” value [10, 17] was 0, the “Corn plant response rating” value [10, 18] was 0 and the “Plant response rating, Corn” value [10, 19] was 15. The “Plant response rating (scale 0 to 100), Pigweed” value ([11]; 16 g ai/ha) was 60, the “Pigweed plant response rating” value [11, 17] was 65 and the “Pigweed plant response rating” value [11, 18] was 70. The “Plant response rating, Pigweed” value [11, 19] was 85, the “Plant response rating (scale 0 to 100), Barnyardgrass” value ([12]; 16 g ai/ha) was 5 and the “Barnyardgrass plant response rating” value [12, 17] was 5. For the same compound, the “Barnyardgrass plant response rating” value [12, 18] was 10, the “Plant response rating, Barnyardgrass” value [12, 19] was 5 and the “Plant response rating (scale 0 to 100), Nutsedge, Yellow” value ([13]; 16 g ai/ha) was 0. For the same compound, the “Nutsedge, Yellow plant response rating” value [13, 17] was 0, the “Nutsedge, Yellow plant response rating” value [13, 18] was 5 and the “Plant response rating, Nutsedge, Yellow” value [13, 19] was 5. For the same compound, the “Plant response rating (scale 0 to 100), Chickweed” value ([14]; 16 g ai/ha) was 65, the “Chickweed plant response rating” value [14, 17] was 65 and the “Chickweed plant response rating” value [14, 18] was 75. For the same compound, the “Plant response rating, Chickweed” value [14, 19] was 80.
